In ChEMBL document CHEMBL1201862, “PubChem BioAssay data set” (2004):
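These data come from cells grown in 96-well plates and exposed to compound for 48 hours at five concentrations. GI50 = concentration required for 50% inhibition of growth.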 The source made the active and inactive calls. No stated cut-off is given here; in the data, active = GI50 up to about 1.1 µM and inactive = higher.

Assays:
Assay in all cases: growth of human tumour cells (NCI), 48 h
[1] = tested on: 786-0
[2] = tested on: A498
[3] = tested on: A549
[4] = tested on: ACHN
[5] = tested on: CAKI-1
[6] = tested on: CCRF-CEM
[7] = tested on: COLO 205
[8] = tested on: DLD-1
[9] = tested on: DMS-114
[10] = tested on: DMS-273
[11] = tested on: EKVX
[12] = tested on: HCC 2998
[13] = tested on: HCT-116
[14] = tested on: HCT-15
[15] = tested on: HL-60
[16] = tested on: HOP-18
[17] = tested on: HOP-62
[18] = tested on: HOP-92
[19] = tested on: HT-29
[20] = tested on: IGROV-1
[21] = tested on: K562
[22] = tested on: KM-20L2
[23] = tested on: KM12
[24] = tested on: LOX IMVI
[25] = tested on: LXFL 529
[26] = tested on: M14
[27] = tested on: M19-MEL
[28] = tested on: MOLT-4
[29] = tested on: Malme-3M
[30] = tested on: NCI-H226
[31] = tested on: NCI-H23
[32] = tested on: NCI-H460
[33] = tested on: NCI-H522
[34] = tested on: OVCAR-3
[35] = tested on: OVCAR-4
[36] = tested on: OVCAR-5
[37] = tested on: OVCAR-8
[38] = tested on: RPMI-8226
[39] = tested on: RXF 393
[40] = tested on: SF-268
[41] = tested on: SF-295
[42] = tested on: SF-539
[43] = tested on: SK-MEL-28
[44] = tested on: SK-MEL-2
[45] = tested on: SK-MEL-5
[46] = tested on: SK-OV-3
[47] = tested on: SN12C
[48] = tested on: SNB-19
[49] = tested on: SNB-75
[50] = tested on: SNB-78
[51] = tested on: SR
[52] = tested on: SW-620
[53] = tested on: TK-10
[54] = tested on: U-251
[55] = tested on: UACC-257
[56] = tested on: UACC-62
[57] = tested on: UO-31
[58] = tested on: XF498

## COC(=O)[C@@]1(O)CC(C)C=C1C=O (some centres not stated)
[1]
  GI50: 60.5 µM (inactive)
[2]
  GI50: > 100 µM (inactive)
[3]
  GI50: 24.6 µM (inactive)
[4]
  GI50: > 100 µM (inactive)
[5]
  GI50: > 100 µM (inactive)
[6]
  GI50: 25.3 µM (inactive)
[7]
  GI50: > 100 µM (inactive)
[8]
  GI50: 43 µM (inactive)
[9]
  GI50: 30.2 µM (inactive)
[10]
  GI50: 19.2 µM (inactive)
[11]
  GI50: > 100 µM (inactive)
[12]
  GI50: 66.5 µM (inactive)
[13]
  GI50: 20.8 µM (inactive)
[14]
  GI50: 17.8 µM
[15]
  GI50: 22.1 µM (inactive)
[16]
  GI50: > 100 µM (inactive)
[17]
  GI50: > 100 µM (inactive)
[18]
  GI50: > 100 µM (inactive)
[19]
  GI50: 39.4 µM (inactive)
[20]
  GI50: > 100 µM (inactive)
[21]
  GI50: 55 µM (inactive)
[22]
  GI50: > 100 µM (inactive)
[23]
  GI50: 67.5 µM (inactive)
[24]
  GI50: 53.5 µM (inactive)
[25]
  GI50: 68.7 µM (inactive)
[26]
  GI50: > 100 µM (inactive)
[27]
  GI50: 80.7 µM (inactive)
[28]
  GI50: 60.8 µM (inactive)
[29]
  GI50: > 100 µM (inactive)
[30]
  GI50: > 100 µM (inactive)
[31]
  GI50: > 100 µM (inactive)
[32]
  GI50: 20.6 µM (inactive)
[33]
  GI50: 20 µM (inactive)
[34]
  GI50: 53.6 µM (inactive)
[35]
  GI50: > 100 µM (inactive)
[36]
  GI50: > 100 µM (inactive)
[37]
  GI50: > 100 µM (inactive)
[38]
  GI50: > 100 µM (inactive)
[39]
  GI50: 15.8 µM (inactive)
[40]
  GI50: 43.2 µM (inactive)
[41]
  GI50: > 100 µM (inactive)
[42]
  GI50: > 100 µM (inactive)
[43]
  GI50: > 100 µM (inactive)
[44]
  GI50: > 100 µM (inactive)
[45]
  GI50: > 100 µM (inactive)
[46]
  GI50: > 100 µM (inactive)
[47]
  GI50: > 100 µM (inactive)
[48]
  GI50: > 100 µM (inactive)
[49]
  GI50: > 100 µM (inactive)
[50]
  GI50: 20.2 µM (inactive)
[51]
  GI50: 55.3 µM (inactive)
[52]
  GI50: 40.1 µM (inactive)
[53]
  GI50: > 100 µM (inactive)
[54]
  GI50: 18.2 µM (inactive)
[55]
  GI50: > 100 µM (inactive)
[56]
  GI50: 73.6 µM (inactive)
[57]
  GI50: > 100 µM (inactive)
[58]
  GI50: > 100 µM (inactive)

## O=c1c2ccccc2[nH]c2cc(O)cc(O)c12
[3]
  GI50: 92.5 µM (inactive)
[4]
  GI50: 26.4 µM (inactive)
[6]
  GI50: 49 µM (inactive)
[10]
  GI50: 35.1 µM (inactive)
[12]
  GI50: 50.2 µM (inactive)
[13]
  GI50: 55.6 µM (inactive)
[14]
  GI50: 55.6 µM
[15]
  GI50: > 100 µM (inactive)
[16]
  GI50: > 100 µM (inactive)
[19]
  GI50: 40.2 µM (inactive)
[20]
  GI50: < 0.01 µM (active)
[21]
  GI50: 66.4 µM (inactive)
[23]
  GI50: 34.9 µM (inactive)
[24]
  GI50: 32.1 µM (inactive)
[25]
  GI50: 39.3 µM (inactive)
[26]
  GI50: 91 µM (inactive)
[27]
  GI50: 39.1 µM (inactive)
[28]
  GI50: 34.2 µM (inactive)
[29]
  GI50: 56.8 µM (inactive)
[30]
  GI50: 27.2 µM (inactive)
[31]
  GI50: 22.9 µM (inactive)
[32]
  GI50: 32.8 µM (inactive)
[33]
  GI50: 16.9 µM (inactive)
[34]
  GI50: 53.1 µM (inactive)
[35]
  GI50: > 100 µM (inactive)
[37]
  GI50: 30.6 µM (inactive)
[39]
  GI50: > 100 µM (inactive)
[40]
  GI50: 93.8 µM (inactive)
[41]
  GI50: 42.9 µM (inactive)
[42]
  GI50: 41.5 µM (inactive)
[43]
  GI50: > 100 µM (inactive)
[44]
  GI50: 81.7 µM (inactive)
[45]
  GI50: 19.1 µM (inactive)
[46]
  GI50: 85.5 µM (inactive)
[47]
  GI50: 61.4 µM (inactive)
[48]
  GI50: > 100 µM (inactive)
[49]
  GI50: 47.9 µM (inactive)
[50]
  GI50: > 100 µM (inactive)
[53]
  GI50: > 100 µM (inactive)
[54]
  GI50: 79.3 µM (inactive)
[55]
  GI50: 45 µM (inactive)
[56]
  GI50: > 100 µM (inactive)
[57]
  GI50: 21 µM (inactive)
[58]
  GI50: 27.9 µM (inactive)
